Assay results from ChEMBL document CHEMBL1201862, “PubChem BioAssay data set” (2004).
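Where inhibition never reached the appropriate level, the endpoint shown equals the highest concentration tested. Otherwise, values were interpolated linearly from a five-concentration, 48-hour dose response in 96-well plates. At the GI50, growth is halved.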 Active and inactive are the calls of the source. Rule as the data show it: active = GI50 up to about 1.1 µM and inactive = higher.

Assays:
Test in all cases: NCI tumour cell line growth inhibition, 48 h
U-251 = tested on: U-251
UACC-257 = tested on: UACC-257
HCC 2998 = tested on: HCC 2998
SK-MEL-2 = tested on: SK-MEL-2
DLD-1 = tested on: DLD-1
M14 = tested on: M14
SNB-78 = tested on: SNB-78
OVCAR-3 = tested on: OVCAR-3
HCT-15 = tested on: HCT-15
SF-295 = tested on: SF-295
DMS-273 = tested on: DMS-273
A498 = tested on: A498
A549 = tested on: A549
NCI-H522 = tested on: NCI-H522
NCI-H226 = tested on: NCI-H226
SN12C = tested on: SN12C
SK-MEL-28 = tested on: SK-MEL-28
DU-145 = tested on: DU-145
MDA-MB-435 = tested on: MDA-MB-435
T47D = tested on: T47D

Measured: GI50

Cc1nc2ccc(N)cc2nc1O
inactive: U-251 > 100 µM | UACC-257 > 100 µM | HCC 2998 > 100 µM | SK-MEL-2 > 100 µM | DLD-1 > 100 µM | M14 > 100 µM | SNB-78 > 100 µM | OVCAR-3 > 100 µM | SF-295 > 100 µM | DMS-273 > 100 µM | A498 > 100 µM | A549 > 100 µM
> 100 µM: HCT-15

COc1cccc2c1N[S@](=O)S2
inactive: NCI-H522 86.1 µM | NCI-H226 > 100 µM | U-251 39.3 µM | SN12C 63.5 µM | UACC-257 > 100 µM | SK-MEL-2 > 100 µM | DLD-1 72.9 µM | M14 > 100 µM | SNB-78 > 100 µM | SK-MEL-28 > 100 µM | OVCAR-3 > 100 µM | SF-295 95.7 µM | DMS-273 > 100 µM | A549 > 100 µM
82.4 µM: HCT-15

COc1ccc(/C(Cl)=C(\C=O)c2ccc([N+](=O)[O-])cc2)cc1OC
inactive: DU-145 19.2 µM | NCI-H522 4.07 µM | NCI-H226 11.4 µM | U-251 6.32 µM | SN12C 5.73 µM | UACC-257 11.5 µM | SK-MEL-2 21 µM | M14 7.28 µM | SNB-78 4.3 µM | SK-MEL-28 13.1 µM | OVCAR-3 11.5 µM | MDA-MB-435 3.24 µM | SF-295 13.4 µM | DMS-273 11.8 µM | A498 20.5 µM | A549 24.7 µM | T47D 6.9 µM
5 µM: HCT-15

[O-][S+]1c2ccccc2N=C(c2cccs2)CC1c1ccccc1O (stereo unspecified)
inactive: NCI-H522 65.2 µM | NCI-H226 > 100 µM | SN12C > 100 µM | UACC-257 > 100 µM | HCC 2998 96.6 µM | SK-MEL-2 > 100 µM | DLD-1 60.8 µM | M14 > 100 µM | SK-MEL-28 > 100 µM | OVCAR-3 > 100 µM | SF-295 70.3 µM | A498 25.4 µM | A549 > 100 µM
> 100 µM: HCT-15

CCC/N=C/c1c(O)c(O)c(C(C)C)c2cc(C)c(-c3c(C)cc4c(C(C)C)c(O)c(O)c(/C=N/CCC)c4c3O)c(O)c12
7.46 µM: HCT-15
inactive: DU-145 23.8 µM | NCI-H522 1.53 µM | NCI-H226 14.6 µM | U-251 2.07 µM | SN12C 10.4 µM | UACC-257 9.59 µM | HCC 2998 8.61 µM | SK-MEL-2 2.76 µM | M14 7.41 µM | SNB-78 2.58 µM | SK-MEL-28 12.6 µM | OVCAR-3 3.88 µM | MDA-MB-435 10.7 µM | SF-295 3.77 µM | A498 11.2 µM | A549 8.05 µM | T47D 7.74 µM

O=C(CCN1CCCCC1CO)Nc1ccc2c(c1)C(=O)c1ccc(NC(=O)CCN3CCCCC3CO)cc1C2=O (stereo unspecified)
inactive: NCI-H522 8.18 µM | NCI-H226 18.8 µM | U-251 8.13 µM | SN12C 6.68 µM | UACC-257 14.4 µM | HCC 2998 9.35 µM | SK-MEL-2 4.58 µM | M14 10.4 µM | SNB-78 7.36 µM | SK-MEL-28 12.9 µM | SF-295 23.8 µM | DMS-273 5.16 µM | A498 2.25 µM | A549 27.9 µM
14.2 µM: HCT-15

Cc1ccc(-c2cc(=O)c3cc(C)c(C)c(C(=O)O)c3o2)cc1[N+](=O)[O-]
inactive: NCI-H522 > 100 µM | NCI-H226 > 100 µM | U-251 > 100 µM | SN12C > 100 µM | UACC-257 > 100 µM | SK-MEL-2 > 100 µM | DLD-1 > 100 µM | M14 > 100 µM | SNB-78 > 100 µM | SK-MEL-28 > 100 µM | OVCAR-3 > 100 µM | SF-295 > 100 µM | DMS-273 > 100 µM | A549 > 100 µM
> 100 µM: HCT-15

COC(=O)C1(C)CCc2c(OC)ccc(OC)c2C1=O (stereo unspecified)
> 100 µM: HCT-15
inactive: NCI-H522 > 100 µM | NCI-H226 > 100 µM | U-251 > 100 µM | SN12C > 100 µM | UACC-257 > 100 µM | HCC 2998 > 100 µM | SK-MEL-2 > 100 µM | DLD-1 > 100 µM | M14 > 100 µM | SNB-78 > 100 µM | SK-MEL-28 > 100 µM | OVCAR-3 > 100 µM | SF-295 > 100 µM | DMS-273 > 100 µM | A549 > 100 µM

O=C(CCN1CCCC1)CC(c1ccccc1)c1c(O)c2ccccc2oc1=O (stereo unspecified)
> 100 µM: HCT-15
inactive: NCI-H522 > 100 µM | NCI-H226 > 100 µM | U-251 > 100 µM | SN12C > 100 µM | UACC-257 > 100 µM | HCC 2998 > 100 µM | SK-MEL-2 > 100 µM | DLD-1 > 100 µM | M14 > 100 µM | SNB-78 > 100 µM | SK-MEL-28 > 100 µM | OVCAR-3 > 100 µM | SF-295 > 100 µM | DMS-273 > 100 µM | A549 > 100 µM

O=C(O)OC12CCCCCC1C(=O)C1CCCCC12 (stereo unspecified)
78.2 µM: HCT-15
inactive: NCI-H522 65.8 µM | NCI-H226 > 100 µM | U-251 > 100 µM | SN12C > 100 µM | UACC-257 > 100 µM | SK-MEL-2 > 100 µM | M14 > 100 µM | SNB-78 > 100 µM | SK-MEL-28 > 100 µM | SF-295 > 100 µM | DMS-273 62.5 µM | A549 > 100 µM

CN(C)CC(C)(C)C(=O)/C=C/c1ccc(/C=C/C(=O)C(C)(C)CN(C)C)cc1
0.605 µM: HCT-15
inactive: NCI-H226 2.23 µM | U-251 1.61 µM | SN12C 1.42 µM | UACC-257 2.09 µM | HCC 2998 1.66 µM | M14 1.62 µM | SK-MEL-28 1.87 µM | OVCAR-3 1.29 µM | SF-295 2.05 µM | A498 1.9 µM | A549 2.79 µM
active: NCI-H522 0.136 µM | DLD-1 0.28 µM | DMS-273 0.706 µM

Cc1ccc(N2C(=O)CS/C2=C(\C#N)c2nc3ccccc3[nH]2)cc1
> 100 µM: HCT-15
inactive: NCI-H522 > 100 µM | NCI-H226 > 100 µM | U-251 > 100 µM | SN12C > 100 µM | UACC-257 > 100 µM | HCC 2998 > 100 µM | SK-MEL-2 > 100 µM | DLD-1 > 100 µM | M14 > 100 µM | SK-MEL-28 > 100 µM | OVCAR-3 > 100 µM | DMS-273 > 100 µM | A498 > 100 µM | A549 > 100 µM

Cn1c(=O)c2c(nc3n(Cc4ccccc4)c(=O)c(NCCCBr)cn23)n(C)c1=O
inactive: DU-145 > 100 µM | NCI-H522 54.3 µM | NCI-H226 31.5 µM | U-251 34.1 µM | SN12C > 100 µM | UACC-257 > 100 µM | HCC 2998 > 100 µM | SK-MEL-2 > 100 µM | M14 > 100 µM | SK-MEL-28 > 100 µM | OVCAR-3 > 100 µM | MDA-MB-435 > 100 µM | SF-295 31.8 µM | A498 > 100 µM | A549 > 100 µM | T47D > 100 µM
> 100 µM: HCT-15

CCN(CC)CCCNc1c2cc(OC)ccc2nc2cccc([N+](=O)[O-])c12
active: DU-145 0.0551 µM | NCI-H522 0.00658 µM | NCI-H226 0.204 µM | U-251 0.082 µM | SN12C 0.11 µM | UACC-257 0.227 µM | HCC 2998 0.0655 µM | SK-MEL-2 0.101 µM | M14 0.0938 µM | SK-MEL-28 0.231 µM | OVCAR-3 0.034 µM | MDA-MB-435 0.0995 µM | SF-295 0.147 µM | A498 0.0127 µM | A549 0.065 µM | T47D 0.151 µM
0.0676 µM: HCT-15

COC(=O)c1cc2c(cc1Cl)Sc1nnc(Nc3ccccc3)n1S2(=O)=O
2.34 µM: HCT-15
inactive: DU-145 1.66 µM | NCI-H522 1.68 µM | NCI-H226 2.45 µM | U-251 2.76 µM | SN12C 6.31 µM | UACC-257 7.66 µM | HCC 2998 1.91 µM | SK-MEL-2 2.81 µM | M14 4.41 µM | SK-MEL-28 3.15 µM | OVCAR-3 1.75 µM | MDA-MB-435 7.48 µM | SF-295 3.78 µM | A498 5.55 µM | A549 8.47 µM | T47D 1.59 µM

CC(C)=CCC[C@](C)(O[C@@H]1O[C@H](CO)[C@@H](O)[C@H](O)[C@H]1O)[C@H]1CC[C@]2(C)[C@@H]1[C@H](O)C[C@@H]1[C@@]3(C)CC[C@H](O)C(C)(C)[C@@H]3[C@@H](O[C@@H]3O[C@H](CO)[C@@H](O)[C@H](O)[C@H]3O[C@@H]3O[C@@H](C)[C@H](O)[C@@H](O)[C@H]3O)C[C@]12C.CC(C)=CCC[C@](C)(O[C@@H]1O[C@H](CO)[C@@H](O)[C@H](O)[C@H]1O)[C@H]1CC[C@]2(C)[C@@H]1[C@H](O)C[C@@H]1[C@@]3(C)CC[C@H](O)C(C)(C)[C@@H]3[C@@H](O[C@@H]3O[C@H](CO)[C@@H](O)[C@H](O)[C@H]3O[C@@H]3O[C@H](CO)[C@@H](O)[C@H](O)[C@H]3O)C[C@]12C
> 75 µM: HCT-15
inactive: DU-145 > 75 µM | NCI-H522 > 75 µM | NCI-H226 > 75 µM | U-251 > 75 µM | SN12C > 75 µM | UACC-257 > 75 µM | HCC 2998 > 75 µM | SK-MEL-2 > 75 µM | M14 > 75 µM | SK-MEL-28 > 75 µM | OVCAR-3 > 75 µM | MDA-MB-435 > 75 µM | SF-295 60.3 µM | A498 > 75 µM | A549 > 75 µM | T47D > 75 µM
